Reference: US12459951B2, “Compounds that interact with RAS superfamily proteins for treatment of cancers, inflammatory diseases, rasopathies, and fibrotic disease” (SHY Therapeutics, LLC, priority 2022, dated 2025)

Legend:
KRas wild type = assay: Ras GTP Binding Domain Inhibition Assay (Ras Superfamily Assay); details: 20 μM compound
Text: (§1) Biological Example 3: Ras GTP Binding Domain Inhibition Assay
(§2) The assays described in Example 3 are collectively referred to as the “Ras Superfamily Assay” throughout this application.
(§3) A Ras Superfamily Activity Assay (as disclosed in International Application No. PCT/US2018/038613, filed Jun. 20, 2018, which is incorporated by reference in its entirety) was used as a specific assay to evaluate compounds against the following for the following Ras Superfamily proteins: KRas wild type, KRas Q61H mutant, KRas G12C mutant, KRas G12D mutant, Rac-1, and Rho-A.
(§4) • 25 mM Tris-HCl, pH 7.4 • 27 mM KCl • 137 mM NaCl • 1 mM MgCl2 • 1 mM DTT Buffer-II: • 50 mM Tris-HCl, pH 7.0 • 1 mM MgCl2 • 1 mM DTT
(§5) The small GTPases proteins: KRas wild type. KRas Q61H mutant, KRas G12C mutant, KRas G12D mutants, Rac-1, and Rho-A were expressed as His-tagged proteins. In addition, the Guanosine nucleotide Exchange Factor (GEF) Sos protein (residues 556-1049) was expressed as a His-tagged protein. In cells, the guanine nucleotide exchange factor Sos protein promotes activation of Ras proteins by stimulating an exchange of GDP for GTP. The inclusion of Sos to the Ras GTP binding domain inhibition assay may be considered as an alternative representation of physiological cellular conditions for evaluating the inhibitory activity of some of the tested small molecules.
(§6) For the assay, all purified small GTPases proteins were diluted in Buffer-I or Buffer-II to a final concentration of 10-30 μg/mL. 200 μL of each diluted protein was added to a nickel-coated 96-well plate and incubated overnight at 4° C. Then the protein solution was discarded and 200 μL of Buffer-I or Buffer-II was added to each well in the presence of 1% DMSO. Compounds to be tested were added to the protein-coated wells at final concentration of 20 μM, and incubated for 3 hours at room temperature with and without 10-30 μg/mL of Sos added to the final hour of the incubation. When performing IC50 measurements a serial dilution of all tested concentrations was added. Then Cy3-GTP or Cy5-GTP was added to each well to a final concentration of 100 nM. The labeled GTP was incubated for 45 minutes at room temperature. Following GTP incubation, wells were washed 3× in Buffer-I or Buffer-II and 200 μL of Buffer-I or Buffer-II was added to each well. Following washes, the amount of bound labeled-GTP was measured using a SpectraMax M3 (Molecular Devices).

KRas G12D mutant = assay: as above; details: 20 μM compound
Text: as §1, §2, §3, §4, §5, §6

Rac-1 = biological target: T1, Rac-1 (Homo sapiens, UniProt P63000); assay: as above; details: read-out: Rac-1: % inh.
T1 construct: made in house
Text: as §1, §2, §3, §4, §5, §6

TNF-alpha = TNF-alpha Quantification Assay (ELISA), LPS-stimulated RAW 264.7; assay type: cell-based; details: Mus musculus, RAW264.7; at 10 μM; read-out: TNFα: % inh.
IL6 = assay: IL-6 Quantification Assay (ELISA), LPS-stimulated RAW 264.7; assay type: cell-based; design: inhibition: dose or concentration left out as unconfirmed; details: Mus musculus, RAW264.7; read-out: IL-6: % inh.

- KRas wild type + SOS: % inh. (KRas wild type; with SOS): A (A = 1-25% inhibition)
- KRas wild type: % inh. (KRas wild type; without SOS): A (A = 1-25% inhibition)
- KRas G12D mutant + SOS: % inh. (KRas G12D mutant; with SOS): A (A = 1-25% inhibition)
- KRas G12D mutant: % inh. (KRas G12D mutant; without SOS): A (A = 1-25% inhibition)
- inhibition at 20 µM (Rac-1): 1 to 25%
Compound: COC(=O)c1c(-c2ccn(C)n2)cn2nc(-c3nccn3C)nc(N[C@H]3CC[C@H](OC)C3)c12 (racemic) [Compound 180, Methyl 4-(((1S,3S)-3-methoxycyclopentyl)amino)-2-(1-methyl-1H-imidazol-2-yl)-6-(1-methyl-1H-pyrazol-3-yl)pyrrolo[2,1-f][1,2,4]triazine-5-carboxylate]
- inhibition at 10 µM (TNF-alpha): 25 to 49%
- inhibition (IL6): 50 to 74%
